BindingDB's records for doi:10.1016/S0960-894X(00)80655-1 (1992)

Target: Polyunsaturated fatty acid 5-lipoxygenase (Cavia porcellus)
Assay: Inhibition of [14C]arachidonic acid conversion to 5-HETE by broken cell 5-LO isolated from guinea pig PMN

IC50 [µM] | SMILES
0.31 | O=c1c2c([nH]n1CCOc1ccc3ccccc3c1)CCCC2 [2-[2-(Naphthalen-2-yloxy)-ethyl]-2,3a,4,5,6,7-hexahydro-indazol-3-one]
0.48 | O=c1c2c([nH]n1CCOc1ccc3ccccc3c1)CCC2 [2-[2-(Naphthalen-2-yloxy)-ethyl]-3a,4,5,6-tetrahydro-2H-cyclopentapyrazol-3-one]
0.057 | Cc1cc(=O)n(CCOc2ccc3c(c2)Nc2ccccc2S3)[nH]1 [5-Methyl-2-[2-(10H-phenothiazin-2-yloxy)-ethyl]-2,4-dihydro-pyrazol-3-one]
